Reference: patent US4914086A, “Method for treating African human and veterinary trypanosomiases” (priority 1987, dated 1990)
“Also recorded” adds a separate entry of the source.

Tests used:
T. b. brucei EATRO 110 = test: Drug screen, acute EATRO 110 mouse infection (Tables 1, 3); type: in vivo, Trypanosoma brucei brucei (in Swiss-Webster mice)
Excerpt: (§1) T. b. brucei EATRO 110 isolate was maintained as described (Bacchi, C. J., H. C. Nathan, S. H. Hutner, P. P. McCann and A. Sjoerdsma; Polyamine metabolism: a potential chemotherapeutic target in trypanosomes. Science 210: 332-334, 1980). It produces an acute, rapidly fatal parasitemia which is lethal to mice 3-5 days after inoculation. Two T. B. brucei strains, TREU 667 and LUMP 1001 developed by Jennings and coworkers (Jennings, F. W., D. D. Whitelaw and G. M. Urquhart; The relationship between duration of infection with Trypanosoma brucei in mice and the efficacy of chemotherapy. Parasitology 75: 143-153, 1977/Jennings, F. W. and G. D. Gray; Relapsed parasitemia following chemotherapy of chronic T. brucei infections in mice and its relation to cerebral trypanosomes; Contr. Microbiol. Immunol. 7 147-154, 1983) were used as CNS models. Both produce infections which are refractory to Berenil® (diminazene aceturate) and develop within 21 days after inoculation. They are not usually fatal until >40 days after inoculation. LUMP 1001 causes a more virulent CNS infection than TREU 667, and is regarded as more difficult to cure (Jennings, F. W. and G. D. Gray. Relapsed parasitemia following chemotherapy of chronic T. brucei infections in mice and its relation to cerebral trypanosomes. Contr. Microbiol. Immunol. 7 147-154, 1983).
Swiss-Webster (25-30 g) mice were used throughout. In the EATRO 110 model, groups of 100 mice were infected (10^5 trypanosomes/mouse) and the infection was allowed to develop 24 hours before commencing therapy. Animals were divided into groups of 5 before treatment. Cured animals survived >30 days beyond deaths of controls. All compounds were administered by i.p. injection.
Other methods as in Table 1.

T. b. brucei LUMP 1001 = test: CNS model, T. b. brucei LUMP 1001 infection in mice (Table 5); type: in vivo, Trypanosoma brucei brucei (in Swiss-Webster mice); details: for efficacy in CNS model in words: LUMP 1001
Excerpt: as §1
The models for […] nervous system infections used TREU 667 and LUMP 1001 strains which were stored frozen and passaged once in rats before infection of mice. Maintenance and use of these screens were as described (Clarkson, A. B. Jr., C. J. Bacchi, G. H. Mellon, H. C. Nathan, P. P. McCann and A. Sjoerdsma. Efficacy of DFMO+blemoycin in a mouse model of central nervous system African trypanosomiasis. Proc. Natl. Acad. Sci. USA. 80: 5729-5733, 1983/Clarkson, A. B. Jr., E. J. Biene, C. J. Bacchi, P. P. McCann, S. H. Hutner and A. Sjoerdsma. New drug combination for experimental late stage African trypanosomiasis: DFMO with suramin. Am. J. Trop. Med. Hyg. 33: 1073-1077, 1984/Dube, D. K., G. Mpimbaza, A. C. Allison, E. Lederer and L. Rovis. Antitrypanosomal activity of sinefungin, Am. J. Trop. Med. Hyg. 32: 31-33, 1983/Fish, W. R., J. J. Marr, R. L. Berens, D. L. Looker, D. J. Nelson, S. LaFon and A. E. Balber. Inosine analogs as chemotherapeutic agents for African trypanosomes: metabolism in trypanosomes and efficacy in tissue culture. Anti-microb. Ag. Chemother. 27: 33-36, 1985/Clazer, R. I., and L. S. Lloyd. Effects of 8-azaadenosine and formycin on cell lethality and the synthesis and methylation of nucleic acids in human colon carcinoma cells in culture. Biochem. Pharmacol. 31: 3207-3214, 1982/Bacchi, C. J., H. C. Nathan, A. B. Clarkson, Jr., E. J. Bienen, A. J. Bitonti, P. P. McCann and A. Sjoerdsma. Activity of the ornithine decarboxylase inhibitors DL-α-difluoromethylornithine and monofluormethyldehydroornithine methylester alone and in combination with suramin against Trypanosoma brucei brucei central nervous system models, Am. J. Trop. Med. Hyg. (in press)). Briefly, groups of 100-120 mice were infected and the infections allowed to develop until day 21, when the animals were separated into groups of 10 and therapy commenced. Controls were treated with Berenil (40 mg/kg) on day 21. […] Parasitemia was followed by examining tail vein blood smears once weekly. Animals which had relapsed were removed from cages.

[1] = test system: Trypanosoma brucei gambiense; details: bone marrow tissue culture system; cited from earlier work
[2] = test system: Trypanosoma brucei rhodesiense; details: bone marrow tissue culture system; cited from earlier work
[3] = test system: bloodstream trypomastigotes; details: in culture; cited from earlier work
mouse L cells [4] = details: cited from earlier work
mouse L cells [5] = details: cited from earlier work; remark: listed apart in the source
T. cruzi = details: previous studies; cited from earlier work
Leishmania spp = details: previous studies; cited from earlier work
African trypanosomes = details: previous studies; cited from earlier work
T. b. rhodesiense = details: cited from earlier work
VA-13 human cells = details: cited from earlier work
T. congolense = details: cited from earlier work
T. vivax = details: multiple daily doses; Dube et al.; cited from earlier work
[6] = Table 1, 5 mg/kg i.p. (9-DINO, sinefungin once daily for 3 days)
[7] = Table 1, 10 mg/kg i.p. (9-DINO, sinefungin once daily for 3 days)
[8] = Table 1, 25 mg/kg i.p. (9-DINO, sinefungin once daily for 3 days)
[9] = Table 1, 50 mg/kg i.p. (9-DINO, sinefungin once daily for 3 days)
[10] = Table 1, 100 mg/kg i.p. (9-DINO, sinefungin once daily for 3 days)
[11] = Table 1, 200 mg/kg i.p. once daily for 3 days
[12] = Table 1, 400 mg/kg i.p. once daily for 3 days
[13] = Table 3, 5 mg/kg i.p. once daily for 3 days
[14] = Table 3, 10 mg/kg i.p. once daily for 3 days
[15] = Table 3, 25 mg/kg i.p. once daily for 3 days
[16] = Table 1, 0.5 mg/kg i.p. once daily for 3 days
[17] = Table 1, 1 mg/kg i.p. once daily for 3 days
[18] = Table 1, 2.5 mg/kg i.p. (9-DINO, sinefungin once daily for 3 days)
[19] = Table 3, 0.5 mg/kg i.p. once daily for 3 days
[20] = Table 3, 1.0 mg/kg i.p. once daily for 3 days

O=c1[nH]cnc2c([C@@H]3O[C@H](CO)[C@@H](O)[C@H]3O)c[nH]c12 [9-DINO, 7-beta-D-ribofuranosyl-4-oxo-3H, 5H-pyrrolo (3,2-d) pyrimidine]
cure rate (T. b. brucei EATRO 110; 50-100 mg/kg, EATRO 110): 100% | curative / active dose range (T. b. brucei EATRO 110; EATRO 110, text): 25 to 200 mg/kg | # Cured/Total (T. b. brucei EATRO 110; [6]): 0/5 | % Cured (T. b. brucei EATRO 110; [6]): 0% | # Cured/Total (T. b. brucei EATRO 110; [7]): 2/30 | % Cured (T. b. brucei EATRO 110; [7]): 7% | # Cured/Total (T. b. brucei EATRO 110; [8]): 15/20 | % Cured (T. b. brucei EATRO 110; [8]): 50% | # Cured/Total (T. b. brucei EATRO 110; [9]): 4/5 | % Cured (T. b. brucei EATRO 110; [9]): 80% | # Cured/Total (T. b. brucei EATRO 110; [10]): 5/5 | % Cured (T. b. brucei EATRO 110; [10]): 100% | # Cured/Total (T. b. brucei EATRO 110; [11]): 5/5 | % Cured (T. b. brucei EATRO 110; [11]): 100% | # Cured/Total (T. b. brucei EATRO 110; [12]): 3/5 | % Cured (T. b. brucei EATRO 110; [12]): 60% | # Cured/Total (T. b. brucei EATRO 110; [13]): 0/5 | % Cured (T. b. brucei EATRO 110; [13]): 0% | # Cured/Total (T. b. brucei EATRO 110; [14]): 2/30 | % Cured (T. b. brucei EATRO 110; [14]): 7% | # Cured/Total (T. b. brucei EATRO 110; [15]): 15/20 | % Cured (T. b. brucei EATRO 110; [15]): 75% | activity in the acute (short term) EATRO 110 model, in words (T. b. brucei EATRO 110; listed as 9-deazainosine): greatest activity; also recorded: most active analog of the two | activity in the acute (short term) EATRO 110 model, in words (T. b. brucei EATRO 110; text summary): greatest activity; also recorded: highly effective; also recorded: active against acute models; also recorded: more effective than sinefungin, allopurinol and allopurinol riboside | activity in the acute (short term) EATRO 110 model, in words (T. b. brucei EATRO 110; text summary, listed as 9DINO): active against an acute infection | # Cured/Total (T. b. brucei LUMP 1001; 50 mg/kg i.p., 7 days): 0/10 | % Cured (T. b. brucei LUMP 1001; 50 mg/kg i.p., 7 days): 0% | Avg. Day of Relapse (Range) (T. b. brucei LUMP 1001; 50 mg/kg i.p., 7 days): 36 (35-44) Day | # Cured/Total (T. b. brucei LUMP 1001; 100 mg/kg i.p., 7 days): 0/9 | % Cured (T. b. brucei LUMP 1001; 100 mg/kg i.p., 7 days): 0% | Avg. Day of Relapse (Range) (T. b. brucei LUMP 1001; 100 mg/kg i.p., 7 days): 38 (35-44) Day | # Cured/Total (T. b. brucei LUMP 1001; 250 mg/kg i.p., 7 days): 0/10 | % Cured (T. b. brucei LUMP 1001; 250 mg/kg i.p., 7 days): 0% | Avg. Day of Relapse (Range) (T. b. brucei LUMP 1001; 250 mg/kg i.p., 7 days): 49 (35-63) Day | efficacy in CNS model in words (T. b. brucei LUMP 1001): did not cure CNS infections | activity in words [1]: active at very low concentrations | activity in words [2]: active at very low concentrations | metabolism in words [3]: converted to toxic adenosine nucleotide analogues | toxicity in words (mouse L cells [4]): neither toxic for mouse L cells | metabolism in words (mouse L cells [5]): nor metabolized to adenosine nucleotide analogues by these cells; also recorded: not metabolized to adenine nucleotide analogs | activity in words (T. cruzi): more active than allopurinol, thipurinol, and their respective nucleosides | activity in words (Leishmania spp): more active than allopurinol, thipurinol, and their respective nucleosides | activity in words (African trypanosomes): more active than allopurinol, thipurinol, and their respective nucleosides | metabolism in words (T. b. rhodesiense): metabolized to 9-deaza-ATP | metabolism to adenine nucleotide analogs in words (VA-13 human cells): not metabolized to adenine nucleotide analogs

Nc1ncnc2c1ncn2[C@@H]1O[C@H](C[C@@H](N)CC[C@H](N)C(=O)O)[C@@H](O)[C@H]1O [Sinefungin, 6,9-Diamino-1-(6-amino-9H-purin-9-yl)-1,5,6,7,8,9-hexadeoxy-beta-D-ribo-decofuranuronic acid]
% active (T. b. brucei EATRO 110; 25 mg/kg, single dose): 80% | # Cured/Total (T. b. brucei EATRO 110; [16]): 0/15 | % Cured (T. b. brucei EATRO 110; [16]): 0% | # Cured/Total (T. b. brucei EATRO 110; [17]): 0/20 | % Cured (T. b. brucei EATRO 110; [17]): 0% | # Cured/Total (T. b. brucei EATRO 110; [18]): 0/5 | % Cured (T. b. brucei EATRO 110; [18]): 0% | # Cured/Total (T. b. brucei EATRO 110; [6]): 9/15 | % Cured (T. b. brucei EATRO 110; [6]): 60% | # Cured/Total (T. b. brucei EATRO 110; [7]): 8/15 | % Cured (T. b. brucei EATRO 110; [7]): 53% | # Cured/Total (T. b. brucei EATRO 110; [8]): 4/5 | % Cured (T. b. brucei EATRO 110; [8]): 80% | # Cured/Total (T. b. brucei EATRO 110; [19]): 0/15 | % Cured (T. b. brucei EATRO 110; [19]): 0% | # Cured/Total (T. b. brucei EATRO 110; [20]): 0/20 | % Cured (T. b. brucei EATRO 110; [20]): 0% | # Cured/Total (T. b. brucei EATRO 110; [13]): 9/15 | % Cured (T. b. brucei EATRO 110; [13]): 60% | # Cured/Total (T. b. brucei EATRO 110; [14]): 8/15 | % Cured (T. b. brucei EATRO 110; [14]): 53% | # Cured/Total (T. b. brucei EATRO 110; [15]): 4/5 | % Cured (T. b. brucei EATRO 110; [15]): 80% | % effective (T. b. brucei EATRO 110; single doses of 5 or 10 mg/kg): ~ 50% | activity in the acute (short term) EATRO 110 model, in words (T. b. brucei EATRO 110; text summary): less active than 9-DINO and Formycin B | # Cured/Total (T. b. brucei LUMP 1001; 2.5 mg/kg i.p., 3 days): 0/10 | % Cured (T. b. brucei LUMP 1001; 2.5 mg/kg i.p., 3 days): 0% | Avg. Day of Relapse (Range) (T. b. brucei LUMP 1001; 2.5 mg/kg i.p., 3 days): 35 days | # Cured/Total (T. b. brucei LUMP 1001; 5 mg/kg i.p., 3 days): 0/10 | % Cured (T. b. brucei LUMP 1001; 5 mg/kg i.p., 3 days): 0% | Avg. Day of Relapse (Range) (T. b. brucei LUMP 1001; 5 mg/kg i.p., 3 days): 35 days | # Cured/Total (T. b. brucei LUMP 1001; 10 mg/kg i.p., 3 days): 0/10 | % Cured (T. b. brucei LUMP 1001; 10 mg/kg i.p., 3 days): 0% | Avg. Day of Relapse (Range) (T. b. brucei LUMP 1001; 10 mg/kg i.p., 3 days): 39 (35-71) Day | efficacy in CNS model in words (T. b. brucei LUMP 1001): did not produce complete cures | total dose to which infection responded (T. congolense; 9 injections 2 h apart): 0.45 mg | cure in words (T. congolense; multiple daily doses, Dube et al.): cured | cure in words (T. vivax): cured
